Test results reported in the NIST ThermoML archive (doi:10.1021/je0501843).
± gives the expanded uncertainty stated by the source.

Experiment: wn = mass fraction of the nth substance listed
Settings: Fluid (supercritical or subcritical phases), isochoric method, w1 = 0.5001

FC(F)C(F)(F)F [pentafluoroethane] + FCF
Settings | mass density [kg/m3]
301 K, 4414 kPa | 1071.2 ± 2.2
302 K, 4977 kPa | 1071 ± 2.2
303 K, 5537 kPa | 1070.9 ± 2.2
303 K, 5540 kPa | 1070.9 ± 2.2
304 K, 6101 kPa | 1070.8 ± 2.2
304 K, 6103 kPa | 1070.8 ± 2.2
305 K, 6663 kPa | 1070.6 ± 2.2
306 K, 7227 kPa | 1070.5 ± 2.2
306 K, 7228 kPa | 1070.5 ± 2.2
307 K, 7791 kPa | 1070.4 ± 2.2
307 K, 7792 kPa | 1070.4 ± 2.2
308 K, 8356 kPa | 1070.2 ± 2.2
308 K, 8357 kPa | 1070.2 ± 2.2
309 K, 8918 kPa | 1070.1 ± 2.2
310 K, 9482 kPa | 1070 ± 2.2
310 K, 9484 kPa | 1070 ± 2.2
311 K, 10048 kPa | 1069.8 ± 2.2
311 K, 10049 kPa | 1069.8 ± 2.2
312 K, 10614 kPa | 1069.7 ± 2.2
312 K, 10615 kPa | 1069.7 ± 2.2
313 K, 11178 kPa | 1069.6 ± 2.2
313 K, 11179 kPa | 1069.6 ± 2.2
314 K, 11741 kPa | 1069.4 ± 2.2
314 K, 11743 kPa | 1069.4 ± 2.2
315 K, 12309 kPa | 1069.3 ± 2.2
316 K, 12875 kPa | 1069.2 ± 2.2
316 K, 12877 kPa | 1069.2 ± 2.2
317 K, 13440 kPa | 1069 ± 2.2
318 K, 14003 kPa | 1068.9 ± 2.2
318 K, 14005 kPa | 1068.9 ± 2.2
319 K, 14570 kPa | 1068.8 ± 2.2
319 K, 14571 kPa | 1068.8 ± 2.2
320 K, 15135 kPa | 1068.6 ± 2.2
320 K, 15137 kPa | 1068.6 ± 2.2
321 K, 15700 kPa | 1068.5 ± 2.2
321 K, 15701 kPa | 1068.5 ± 2.2
322 K, 16263 kPa | 1068.4 ± 2.2
322 K, 16265 kPa | 1068.4 ± 2.2
323 K, 16830 kPa | 1068.2 ± 2.2
324 K, 17394 kPa | 1068.1 ± 2.2
324 K, 17396 kPa | 1068.1 ± 2.2
325 K, 5448 kPa | 946.2 ± 2
325 K, 17959 kPa | 1068 ± 2.2
325 K, 17961 kPa | 1068 ± 2.2
326 K, 5835 kPa | 946.1 ± 1.9
326 K, 5836 kPa | 946.1 ± 1.9
326 K, 18524 kPa | 1067.8 ± 2.2
326 K, 18525 kPa | 1067.8 ± 2.2
327 K, 6224 kPa | 946 ± 1.9
327 K, 6225 kPa | 946 ± 1.9
327 K, 19088 kPa | 1067.7 ± 2.2
327 K, 19090 kPa | 1067.7 ± 2.2
328 K, 6615 kPa | 945.9 ± 1.9
328 K, 6616 kPa | 945.9 ± 1.9
328 K, 19652 kPa | 1067.6 ± 2.2
328 K, 19655 kPa | 1067.6 ± 2.2
329 K, 7006 kPa | 945.8 ± 1.9
329 K, 7007 kPa | 945.8 ± 1.9
330 K, 7397 kPa | 945.7 ± 1.9
330 K, 7399 kPa | 945.7 ± 1.9
331 K, 7788 kPa | 945.6 ± 1.9
331 K, 7790 kPa | 945.6 ± 1.9
332 K, 8183 kPa | 945.5 ± 1.9
332 K, 8184 kPa | 945.5 ± 1.9
333 K, 8579 kPa | 945.4 ± 1.9
334 K, 8970 kPa | 945.4 ± 1.9
334 K, 8971 kPa | 945.4 ± 1.9
335 K, 9364 kPa | 945.3 ± 1.9
336 K, 9759 kPa | 945.2 ± 1.9
337 K, 10156 kPa | 945.1 ± 1.9
337 K, 10157 kPa | 945.1 ± 1.9
338 K, 6179 kPa | 859.9 ± 1.8
338 K, 10552 kPa | 945 ± 1.9
338 K, 10553 kPa | 945 ± 1.9
339 K, 6478 kPa | 859.9 ± 1.8
339 K, 10948 kPa | 944.9 ± 1.9
340 K, 6782 kPa | 859.8 ± 1.8
340 K, 11344 kPa | 944.8 ± 1.9
340 K, 11346 kPa | 944.8 ± 1.9
341 K, 7089 kPa | 859.7 ± 1.7
341 K, 11743 kPa | 944.7 ± 1.9
341 K, 11745 kPa | 944.7 ± 1.9
342 K, 7389 kPa | 859.6 ± 1.8
342 K, 12139 kPa | 944.6 ± 1.9
342 K, 12142 kPa | 944.6 ± 1.9
343 K, 7693 kPa | 859.6 ± 1.8
343 K, 12536 kPa | 944.5 ± 1.9
343 K, 12538 kPa | 944.5 ± 1.9
344 K, 7998 kPa | 859.5 ± 1.7
344 K, 12935 kPa | 944.4 ± 1.9
344 K, 12936 kPa | 944.4 ± 1.9
345 K, 8306 kPa | 859.4 ± 1.7
345 K, 13334 kPa | 944.3 ± 1.9
346 K, 8612 kPa | 859.3 ± 1.7
346 K, 13733 kPa | 944.2 ± 1.9
347 K, 6281 kPa | 761.1 ± 1.6
347 K, 8917 kPa | 859.3 ± 1.7
347 K, 14131 kPa | 944.1 ± 1.9
